Measurements reported in PubChem BioAssay (NCI).
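Interpolation was linear, between the two tested concentrations surrounding the appropriate level; five concentrations were tested over 48 hours in 96-well plates. GI50 = concentration required for 50% inhibition of growth. TGI is the concentration that stops growth completely.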 Where a SMILES comes first, the peptide text is derived from it. [ ]: non-standard residue; d: D form. The star is where a group is joined. ξ: configuration not given here. 4Abz = Nc1ccc(C(=O)O)cc1; ξL = CC(C)CC(N)C(=O)O; NHOH = ON*

Columns and labels:
Experiment in all cases: NCI tumour cell line growth inhibition, 48 h
[1] = test system: HOP-92 NSCLC
[2] = test system: A549 NSCLC
[3] = test system: RPMI-8226 leukemia
[4] = test system: K-562 leukemia
[5] = test system: SK-MEL-5 melanoma
[6] = test system: OVCAR-4 ovarian
[7] = test system: IGROV1 ovarian
[8] = test system: SN12C renal
[9] = test system: U251 CNS
[10] = test system: MDA-MB-231 breast

SMILES	TGI [1] [µM]	TGI [2] [µM]	TGI [3] [µM]	TGI [4] [µM]	TGI [5] [µM]	TGI [6] [µM]	TGI [7] [µM]	TGI [8] [µM]	TGI [9] [µM]	TGI [10] [µM]	GI50 [2] [nM]	GI50 [9] [nM]	GI50 [10] [µM]	GI50 [4] [µM]	GI50 [5] [µM]	GI50 [6] [µM]	GI50 [7] [µM]	GI50 [1] [µM]	GI50 [3] [nM]	GI50 [8] [µM]
CCOc1cccc2cccnc12	> 100	> 100	> 100	> 100	> 100	> 100	> 100	> 100	–	–	–	–	–	–	–	–	–	–	–	–
O=C(/C=C(\O)C(=O)O)/C=C(\O)c1ccc(Cl)cc1	> 100	> 100	> 100	> 100	> 100	> 100	> 100	> 100	> 100	–	–	–	–	–	–	–	–	–	–	–
O=C1/C=C(/c2ccc(O)cc2)[C@H](O)Cc2ccc(OC3OC(CO)C(O)C(O)C3O)cc2O1 (stereo partly specified) (tested in a mixture with another compound)	–	> 100	> 100	–	> 100	> 100	> 100	> 100	> 100	–	–	–	–	–	–	–	–	–	–	–
COc1ccc2c(c1)C(CCN)C(=O)N2 (stereo unspecified)	> 100	> 100	> 100	> 100	> 100	> 100	> 100	–	> 100	–	–	–	–	–	–	–	–	–	–	–
Cc1cc(C)c(-c2noc(-c3ccc(Cl)cc3)c2C2=NCCN2)c(C)c1	–	> 100	50.6	37.4	24	> 100	76.7	45.5	34.3	–	–	–	–	–	–	–	–	–	–	–
S=c1sc2ccccc2n1CN1CCN(Cc2ccccc2)CC1	> 100	> 100	> 100	> 100	> 100	> 100	> 100	> 100	> 100	–	–	–	–	–	–	–	–	–	–	–
COc1ncn(C2C=C(CO)C(O)C2O)c(=O)n1 (stereo unspecified)	–	> 100	> 100	> 100	> 100	> 100	> 100	> 100	> 100	–	–	–	–	–	–	–	–	–	–	–
COc1ccccc1NC(=O)CC(=O)NNCC(=O)Nc1nc(-c2ccccc2)cs1	–	> 100	> 100	> 100	> 100	> 100	> 100	> 100	> 100	–	–	–	–	–	–	–	–	–	–	–
O=c1c2ccccc2oc2nccnc12	–	> 100	> 100	> 100	> 100	> 100	> 100	> 100	> 100	–	–	–	–	–	–	–	–	–	–	–
NC(=O)NC1=NCCC(=O)N1CCc1c[nH]c2ccccc12	–	54.8	50.6	32.9	34.2	52.9	42.1	54.7	> 100	29.4	–	–	–	–	–	–	–	–	–	–
CC(C)CC(NC(=O)[C@@H]1CCCN1C(=O)CNC(=O)c1ccc(N)cc1)C(=O)N[C@H](C)C(=O)NO (stereo partly specified) (H-[4Abz]GP[ξL][dA]-{NHOH})	–	> 100	–	> 100	> 100	> 100	> 100	–	> 100	> 100	> 100000	> 100000	> 100	> 100	> 100	> 100	> 100	–	–	–
O=C(c1ccc(Cl)cc1)N(C(=S)N1CCN(c2ccccc2)CC1)C1CCCCC1	> 100	> 100	> 100	> 100	> 100	> 100	> 100	> 100	> 100	–	–	–	–	–	–	–	–	–	–	–
CC(C)CCC[C@@H](C)C1CCC2[C@@H]3CC=C4C[C@@H](OC(=O)CCC(=O)NCC[N+](C)(C)CCCS(=O)(=O)[O-])CC[C@]4(C)C3CC[C@@]21C (stereo partly specified)	–	37.8	45.9	37.6	–	34.5	–	38.2	33.9	–	–	–	–	–	–	–	–	–	–	–
COC1=C(C(=O)OC(C)(C)C)C23CCCCC2(C(C(=O)OC(C)(C)C)=C(OC)C3C(=O)OC(C)(C)C)C1C(=O)OC(C)(C)C (stereo unspecified)	89.5	> 100	> 100	> 100	36	> 100	> 100	> 100	> 100	–	–	–	–	–	–	–	–	–	–	–
NNC(=S)N/N=C(\c1nc2ccc(Cl)cc2[nH]c1=O)C(O)c1ccc(Cl)cc1Cl (stereo unspecified)	> 100	> 100	> 100	> 100	> 100	> 100	> 100	> 100	> 100	–	–	–	–	–	–	–	–	–	–	–
CCOC(=O)C(=C=Cc1cccs1)C(=O)c1ccccc1	19.1	45.5	44.5	> 100	10.5	39.4	34.6	29.3	31.3	–	–	–	–	–	–	–	–	–	–	–
CC(=O)OCC1OC(n2c(-c3ccc(N)cc3)cc(-c3ccco3)c(C#N)c2=O)C(OC(C)=O)C(OC(C)=O)C1OC(C)=O (stereo unspecified)	33.9	> 50	–	–	> 50	> 50	> 50	> 50	29.8	–	–	–	–	–	–	–	–	–	–	–
Nc1ccc(Cl)cc1.Nc1ccc(Cl)cc1.Nc1ccc(Cl)cc1.O=C([O-])C(=O)[O-].O=C([O-])C(=O)[O-].[H+].[Ru+5]	> 100	> 100	> 100	> 100	> 100	> 100	> 100	> 100	> 100	–	351	938	–	< 0.0169	–	> 100	> 100	> 100	147	> 24.5
COC(=O)C1=C(SC)SC2(C(=O)OC)C3C=C(C)C4C(N13)C42C(=O)OC (stereo unspecified)	–	> 100	> 100	> 100	> 100	–	> 100	> 100	> 100	–	–	–	–	–	–	–	–	–	–	–
O=C(CCCCCCCCC(=O)OCCCn1cc(C(=O)NC(=O)OCc2ccccc2)c(=O)[nH]c1=O)OCCCn1cc(C(=O)NC(=O)OCc2ccccc2)c(=O)[nH]c1=O	> 100	> 100	> 100	> 100	> 100	> 100	> 100	> 100	> 100	–	–	–	–	–	–	–	–	–	–	–
Clc1cc(Cl)c2n[se]nc2c1	–	> 100	> 100	> 100	> 100	> 100	> 100	> 100	> 100	–	–	–	–	–	–	–	–	–	–	–
